Test results: patent US12116343B2, “Inhibitors of APOL1 and methods of using same” (Vertex Pharmaceuticals Incorporated, priority 2020, dated 2024)

Molecular target: T1, APOL1 G1 Protein (Homo sapiens, UniProt O14791, I384M/S342G)
T1 sequence (O14791 28-398 S342G/I384M): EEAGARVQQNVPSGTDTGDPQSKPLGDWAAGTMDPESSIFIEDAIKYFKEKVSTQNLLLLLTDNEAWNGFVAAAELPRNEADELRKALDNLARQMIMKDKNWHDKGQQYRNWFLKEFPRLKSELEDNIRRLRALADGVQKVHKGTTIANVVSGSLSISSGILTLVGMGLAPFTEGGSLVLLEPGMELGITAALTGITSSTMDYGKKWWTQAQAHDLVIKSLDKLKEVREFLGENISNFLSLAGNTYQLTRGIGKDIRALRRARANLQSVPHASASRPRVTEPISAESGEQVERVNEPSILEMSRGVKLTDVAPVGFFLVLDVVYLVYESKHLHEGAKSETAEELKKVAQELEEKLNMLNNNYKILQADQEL
Test: Trypanosoma brucei brucei lysis assay using APOL1 recombinant protein (AlamarBlue viability)
Format: cell-based
Settings: Trypanosoma brucei brucei lysis, recombinant APOL1, AlamarBlue; read-out: Trypanosoma Assay (IC50)
Text: Trypanosoma brucei brucei is a blood stream parasite to which human, gorillas and baboon are immune due to the presence of the APOL1 protein in their HDL particles. The protein is uptaken by the parasite via the TbHpHb receptor located in its flagellar pocket and is bonded by the Hpr protein contained in the HDL particles which triggers the receptor endocytosis by the parasite.
Following endocytosis, the formed vesicle containing the HDL particle matures from early to late endosome, and subsequently to lysosome. The concomitant pH change in the lumen of the vesicle triggers the insertion of the APOL1 protein into the membrane of the late endosome/lysosome and hereby triggers lysosomal membrane premeabilisation and as a further downstream event, trypanosome lysis. Trypanosoma brucei brucei is sensitive to lysis by all three APOL1 variants (G0, G1, and G2).
The Trypanosoma brucei brucei lysis assay is a lysis assay of the parasite using recombinant APOL1 protein variant followed by a fluorescent detection method of viability by the addition of AlamarBlue reagent to the assay well, a general metabolic redox indicator (AlamarBlue assay).
Briefly, the AlamarBlue active compound, the resazurin, a blue, water soluble, non-toxic and cell permeable molecule, which can be followed by absorbance, is reduced by various metabolic pathways into resorufin, a red compound which can be followed by either absorbance or fluorescence. The assay allows the calculation of the percent viability (percent of living Trypanosomes remaining in each well) at the end of a lysis relative to the untreated condition by interpolation of fluorescent values (FLU) on a standard curve with a known amount of seeded trypanosome/well.
Trypanosoma brucei brucei (ATCC, Cat. No. PRA-382) • Lister 427 VSG 221 bloodstream form.
Thaw/Expansion Media (ATCC Medium 2834 Modified HMI-9 Medium)
Assay Media (No Phenol Red/No FBS): Make on Day of Use
Hypoxanthine Stock (100×)-9 (10×)
Equipment • El-Clip Tip pipette 12 channel adjustable 2-125 μL, Cat. No. 4672070BT • ThermoFisher MultiDrop 384, Cat. No. 5840300 • Multidrop • Agilent Bravo, Cat. No. G5409A • Bravo • SpectraMax M5
Assay Ready Plates (ARPs) • ARPs comes in two formats: • […] final top concentration with a 2.5 fold dilution down. • […] final top concentration with a 3 fold dilution down. • Both have a 10 point Dose response. • 0.1% DMSO final in the Black Assay Plate. • Compounds are diluted 1000 fold in the Black Assay Plate. • Each plate is designed for 14 compounds in duplicate. • In the final Black Assay Plate:
Trypanosoma brucei brucei Culture
Step 2, Day 4 • Centrifuge at 800×g for 5 minutes at room temperature. • Resuspend in 1 mL media. • Make a 1:25 fold dilution (10 μL/240 μL media). • Count on a hemocytometer (after adding parasites). • Let sit for 1-2 minutes for the parasites to settle. • Count should be approximately 100 viable motile parasites/16 grid or approximately 25×10^6 parasites/flask. • Passage the parasites by adding 1×10^6 parasites/T75 flask in 20 mL media. • Passage the parasites by adding 2.33×10^6 parasites/T175 flask in 46.6 mL media. • For every T75 flask should make enough for approximately 1.5×384 well assay plates. • For every T175 flask should make enough for approximately 3.8×384 well assay plates.
Step 3, Day 6 • Centrifuge at 800×g for 5 minutes. • Resuspend in 3 mL assay media (No phenol red, no FBS) per 75 starting flask. • Resuspend in 7 mL assay media (No phenol red, no FBS) per 175 flask • Make a 1:25 fold dilution. • Count by hemocytometer. • Every T75 flask set up should have approximately 75×10^6 parasites/flask (verify doubling time=8.7 hrs±1 hr). • Every T175 flask set up should have approximately 175×10^6 parasites/flask (verify doubling time=8.7 hrs±1 hr). • Require 46×10^6 parasites per 384 well plate (at 120,000 parasites per well). Protocol B […]

C[C@H]1CN(C(=O)[C@H]2C[C@H](c3c(-c4ccc(F)cc4)[nH]c4c(F)cc(F)cc43)C2)CC[C@@H]1O [Compound 116]
IC50: > 1000 nM

O=C([C@H]1C[C@H](c2c(-c3ccc(F)cc3)[nH]c3c(F)cc(F)cc32)C1)N1CCCC(O)C1 (some centres unmarked) [Compound 150]
IC50: 250 to 1000 nM

NC(=O)[C@H]1CCN(C(=O)[C@H]2C[C@H](c3c(-c4ccc(F)cc4)[nH]c4c(F)cc(F)cc43)C2)C1 [Compound 154]
IC50: > 1000 nM

O=C([C@H]1C[C@H](c2c(-c3ccc(F)cc3)[nH]c3c(F)cc(F)cc32)C1)N1CC(O)C(CO)C1 (some centres unmarked) [Compound 138]
IC50: 250 to 1000 nM

CC(O)C1CCCN(C(=O)[C@H]2C[C@H](c3c(-c4ccc(F)cc4)[nH]c4c(F)cc(F)cc43)C2)C1 (some centres unmarked) [Compound 131]
IC50: > 1000 nM

O=C([C@H]1C[C@H](c2c(-c3ccc(F)cc3)[nH]c3c(F)cc(F)cc32)C1)N1CCCC[C@@H]1CCO [Compound 156]
IC50: > 1000 nM

NC(=O)[C@@H]1CCN(C(=O)[C@H]2C[C@H](c3c(-c4ccc(F)cc4)[nH]c4c(F)cc(F)cc43)C2)C1 [Compound 135]
IC50: > 1000 nM

O=C(NCC1(O)CCC1)[C@H]1C[C@H](c2c(-c3ccc(F)cc3)[nH]c3c(F)cc(F)cc32)C1 [Compound 143]
IC50: > 1000 nM

C[C@H](CO)N(C)C(=O)[C@H]1C[C@H](c2c(-c3ccc(F)cc3)[nH]c3c(F)cc(F)cc32)C1 [Compound 142]
IC50: < 250 nM

CN(CC(O)CO)C(=O)[C@H]1C[C@H](c2c(-c3ccc(F)cc3)[nH]c3c(F)cc(F)cc32)C1 (some centres unmarked) [Compound 158]
IC50: 250 to 1000 nM

CC(CO)N1CCN(C(=O)[C@H]2C[C@H](c3c(-c4ccc(F)cc4)[nH]c4c(F)cc(F)cc43)C2)CC1 (mixture of isomers) [Compound 122]
IC50: > 1000 nM

CC(O)CNC(=O)[C@H]1C[C@H](c2c(-c3ccc(F)cc3)[nH]c3c(F)cc(F)cc32)C1 (some centres unmarked) [Compound 167]
IC50: 250 to 1000 nM

C[C@@H](O)[C@H](CO)NC(=O)[C@H]1C[C@H](c2c(-c3ccc(F)cc3)[nH]c3c(F)cc(F)cc32)C1 [Compound 155]
IC50: 250 to 1000 nM

NC(=O)[C@H]1C[C@H](c2c(-c3ccc(F)cc3)[nH]c3c(F)cc(F)cc32)C1 [Compound 169]
IC50: < 250 nM

CC1(C)CN(C(=O)[C@H]2C[C@H](c3c(-c4ccc(F)cc4)[nH]c4c(F)cc(F)cc43)C2)CCC1O (some centres unmarked) [Compound 114]
IC50: > 1000 nM

O=C([C@H]1C[C@H](c2c(-c3ccc(F)cc3)[nH]c3c(F)cc(F)cc32)C1)N1CC(O)C(N2CCOCC2)C1 (some centres unmarked) [Compound 106]
IC50: > 1000 nM

O=C([C@H]1C[C@H](c2c(-c3ccc(F)cc3)[nH]c3c(F)cc(F)cc32)C1)N1CCCC(CCO)C1 (some centres unmarked) [Compound 128]
IC50: > 1000 nM

C[C@@H](O)[C@@H](CO)NC(=O)[C@H]1C[C@H](c2c(-c3ccc(F)cc3)[nH]c3c(F)cc(F)cc32)C1 [Compound 160]
IC50: < 250 nM

NC(=O)[C@H](CO)NC(=O)[C@H]1C[C@H](c2c(-c3ccc(F)cc3)[nH]c3c(F)cc(F)cc32)C1 [Compound 144]
IC50: 250 to 1000 nM

CO[C@H]1CCN(C(=O)[C@H]2C[C@H](c3c(-c4ccc(F)cc4)[nH]c4c(F)cc(F)cc43)C2)C1 [Compound 95]
IC50: > 1000 nM

CN(CC1(CO)CCOCC1)C(=O)[C@H]1C[C@H](c2c(-c3ccc(F)cc3)[nH]c3c(F)cc(F)cc32)C1 [Compound 120]
IC50: > 1000 nM

O=C([C@H]1C[C@H](c2c(-c3ccc(F)cc3)[nH]c3c(F)cc(F)cc32)C1)N1CCCC(CO)C1 (some centres unmarked) [Compound 147]
IC50: > 1000 nM

O=C([C@H]1C[C@H](c2c(-c3ccc(F)cc3)[nH]c3c(F)cc(F)cc32)C1)N1CC(OCC2CCCO2)C1 (some centres unmarked) [Compound 136]
IC50: > 1000 nM

O=C([C@H]1C[C@H](c2c(-c3ccc(F)cc3)[nH]c3c(F)cc(F)cc32)C1)N1CCCC[C@H]1CO [Compound 146]
IC50: 250 to 1000 nM

O=C([C@H]1C[C@H](c2c(-c3ccc(F)cc3)[nH]c3c(F)cc(F)cc32)C1)N1CCOC(O)C1 (some centres unmarked) [Compound 115]
IC50: < 250 nM

CNC(=O)C(C)NC(=O)[C@H]1C[C@H](c2c(-c3ccc(F)cc3)[nH]c3c(F)cc(F)cc32)C1 (mixture of isomers) [Compound 9]
IC50: 250 to 1000 nM

O=C([C@H]1C[C@H](c2c(-c3ccc(F)cc3)[nH]c3c(F)cc(F)cc32)C1)N1CCC2(COC2)C1 [Compound 103]
IC50: > 1000 nM

CCN(CCO)C(=O)[C@H]1C[C@H](c2c(-c3ccc(F)cc3)[nH]c3c(F)cc(F)cc32)C1 [Compound 124]
IC50: 250 to 1000 nM

NC(=O)[C@H]1CCCN1C(=O)[C@H]1C[C@H](c2c(-c3ccc(F)cc3)[nH]c3c(F)cc(F)cc32)C1 [Compound 153]
IC50: < 250 nM

CC(C)N(CCO)C(=O)[C@H]1C[C@H](c2c(-c3ccc(F)cc3)[nH]c3c(F)cc(F)cc32)C1 [Compound 123]
IC50: 250 to 1000 nM

O=C1C[C@H](NC(=O)[C@H]2C[C@H](c3c(-c4ccc(F)cc4)[nH]c4c(F)cc(F)cc43)C2)C(=O)N1 [Compound 165]
IC50: < 250 nM

CC1(C)CN(C(=O)[C@H]2C[C@H](c3c(-c4ccc(F)cc4)[nH]c4c(F)cc(F)cc43)C2)CCN1C(=O)[C@H]1C[C@@](C)(O)C1 [Compound 130]
IC50: > 1000 nM

O=C([C@H]1C[C@H](c2c(-c3ccc(F)cc3)[nH]c3c(F)cc(F)cc32)C1)N1CC2(CC(O)C2)C1 [Compound 137]
IC50: > 1000 nM

O=C([C@H]1C[C@H](c2c(-c3ccc(F)cc3)[nH]c3c(F)cc(F)cc32)C1)N1CCCCC1CO (some centres unmarked) [Compound 145]
IC50: 250 to 1000 nM

O=C([C@H]1C[C@H](c2c(-c3ccc(F)cc3)[nH]c3c(F)cc(F)cc32)C1)N1CCN[C@H](CO)C1 [Compound 161]
IC50: 250 to 1000 nM

O=C(NC1(CO)CCC1)[C@H]1C[C@H](c2c(-c3ccc(F)cc3)[nH]c3c(F)cc(F)cc32)C1 [Compound 6]
IC50: < 250 nM

CCN(C(=O)[C@H]1C[C@H](c2c(-c3ccc(F)cc3)[nH]c3c(F)cc(F)cc32)C1)C(C)CO (mixture of isomers) [Compound 111]
IC50: 250 to 1000 nM

O=C(NCCOCCO)[C@H]1C[C@H](c2c(-c3ccc(F)cc3)[nH]c3c(F)cc(F)cc32)C1 [Compound 125]
IC50: < 250 nM

O=C([C@H]1C[C@H](c2c(-c3ccc(F)cc3)[nH]c3c(F)cc(F)cc32)C1)N1C[C@@H]2[C@@H](CO)[C@@H]2C1 [Compound 99]
IC50: > 1000 nM

O=C([C@H]1C[C@H](c2c(-c3ccc(F)cc3)[nH]c3c(F)cc(F)cc32)C1)N1CCO[C@H](CO)C1 [Compound 118]
IC50: > 1000 nM

O=C([C@H]1C[C@H](c2c(-c3ccc(F)cc3)[nH]c3c(F)cc(F)cc32)C1)N1C2CCC(C2)C1CO (some centres unmarked) [Compound 97]
IC50: > 1000 nM

O=C([C@H]1C[C@H](c2c(-c3ccc(F)cc3)[nH]c3c(F)cc(F)cc32)C1)N1CC[C@H](CO)C1 [Compound 140]
IC50: > 1000 nM

O=C1NCC[C@@H]1NC(=O)[C@H]1C[C@H](c2c(-c3ccc(F)cc3)[nH]c3c(F)cc(F)cc32)C1 [Compound 162]
IC50: 250 to 1000 nM

NC(=O)C1CCN(C(=O)[C@H]2C[C@H](c3c(-c4ccc(F)cc4)[nH]c4c(F)cc(F)cc43)C2)CC1 [Compound 133]
IC50: > 1000 nM
